Laboratory results published in patent publication US9695155B2, “Herbicidal substituted pyrimidinyloxy benzene compounds” (E. I. DU PONT DE NEMOURS AND COMPANY, priority 2013, dated 2017).

Assays:
barnyardgrass [1] = assay: Test A preemergence; assay type: in vivo, Echinochloa crus-galli
Outline: (§1)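 Visual 0–100 rating (100 = complete control) taken about 10 d post-treatment relative to untreated checks. Preemergence: directed soil spray on sown loam/sand pots. Postemergence: seedlings 2–10 cm, 1–2 leaf. Non-phytotoxic solvent formulation with surfactant.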

giant foxtail [2] = assay: Test A preemergence; assay type: in vivo, Setaria faberii
Outline: as §1

pigweed [3] = assay: Test A preemergence; assay type: in vivo, Amaranthus retroflexus
Outline: as §1

pigweed [4] = assay: Test A postemergence; assay type: in vivo, Amaranthus retroflexus
Outline: as §1

sedge, umbrella = assay: Test B flooded paddy test; assay type: in vivo, Cyperus difformis; conditions: Flood, 250 g ai/ha; 0 to 100 scale where 0 is no effect and 100 is complete control
Outline: (§2)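 Visual ratings on a 0 to 100 scale, where 100 means complete control, compared treated plants with controls after 13 to 15 days in a greenhouse. Treatment went into paddy water 3 cm deep over the soil, applied to plants at the 2-leaf stage.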

barnyardgrass [5] = assay: Test B flooded paddy test; assay type: in vivo, Echinochloa crus-galli; conditions: Flood, 250 g ai/ha; 0 to 100 scale where 0 is no effect and 100 is complete control
Outline: as §2

blackgrass = assay: Test C postemergence; assay type: in vivo, Alopecurus myosuroides
Outline: (§3)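 Greenhouse herbicide screen. Pre: seeded loam/sand, sprayed at planting. Post: 1–4 leaf plants (2–18 cm) in peat-based mix. Formulation: solvent mixture + surfactant, non-phytotoxic. Readout: visual % control vs untreated, 13–15 d; dash = not tested.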

Italian ryegrass = assay: Test C postemergence; assay type: in vivo, Lolium multiflorum
Outline: as §3

corn = assay: Test C postemergence; assay type: in vivo, Zea mays
Outline: as §3

large (Lg) crabgrass = assay: Test C postemergence; assay type: in vivo, Digitaria sanguinalis
Outline: as §3

giant foxtail [6] = assay: Test C postemergence; assay type: in vivo, Setaria faberii
Outline: as §3

johnsongrass = assay: Test C postemergence; assay type: in vivo, Sorghum halepense
Outline: as §3

chickweed = assay: Test C postemergence; assay type: in vivo, Stellaria media
Outline: as §3

[7] = 500 g ai/ha, 0 to 100 scale where 0 is no effect and 100 is complete control
[8] = 16 g ai/ha, postemergence, 0 is no effect, 100 is complete control
[9] = 31 g ai/ha, postemergence, visual rating, scale 0 to 100 (0 no effect, 100 complete control), 13 to 15 days
[10] = 125 g ai/ha, postemergence, visual rating, scale 0 to 100 (0 no effect, 100 complete control)
[11] = Postemergence, 62 g ai/ha, scale 0 to 100 (0 no effect, 100 complete control), 13 to 15 days

N#Cc1cn(-c2c(C#N)cccc2Oc2ncc(Cl)cn2)nn1 [Compound 273]
Barnyardgrass plant response rating (0 to 100 scale, 0 is no effect, 100 is complete control) (barnyardgrass [1]; 125 g ai/ha): 70
Barnyardgrass plant response rating (barnyardgrass [1]; [7]): 90
Foxtail, Giant plant response rating (0 to 100 scale) (giant foxtail [2]; 125 g ai/ha): 90
Foxtail, Giant plant response rating (giant foxtail [2]; [7]): 90
Pigweed plant response rating (0 to 100 scale) (pigweed [3]; 125 g ai/ha): 100
Pigweed plant response rating (pigweed [3]; [7]): 100
Plant response rating, Pigweed (pigweed [4]; 125 g ai/ha, 0 to 100 scale, 0 no effect, 100 complete control): 100
Plant response rating, Pigweed (pigweed [4]; [7]): 100
Plant response rating, Sedge, Umbrella (sedge, umbrella): 75
Plant response rating, Barnyardgrass (barnyardgrass [5]): 0
Plant response rating (0 to 100), Blackgrass (blackgrass; [8]): 5
Blackgrass plant response rating (blackgrass; [9]): 5
Plant response rating, Blackgrass (blackgrass; [10]): 10
Plant response rating, Blackgrass (blackgrass; [11]): 10
Plant response rating (0 to 100), Ryegrass, Italian (Italian ryegrass; [8]): 5
Ryegrass, Italian plant response rating (Italian ryegrass; [9]): 5
Plant response rating, Ryegrass, Italian (Italian ryegrass; [10]): 10
Plant response rating, Ryegrass, Italian (Italian ryegrass; [11]): 5
Plant response rating (0 to 100), Corn (corn; [8]): 5
Corn plant response rating (corn; [9]): 5
Plant response rating, Corn (corn; [10]): 5
Plant response rating, Corn (corn; [11]): 5
Plant response rating (0 to 100), Crabgrass, Large (large (Lg) crabgrass; [8]): 5
Crabgrass, Large plant response rating (large (Lg) crabgrass; [9]): 5
Plant response rating, Crabgrass, Large (large (Lg) crabgrass; [10]): 10
Plant response rating, Crabgrass, Large (large (Lg) crabgrass; [11]): 10
Plant response rating (0 to 100), Foxtail, Giant (giant foxtail [6]; [8]): 10
Foxtail, Giant plant response rating (giant foxtail [6]; [9]): 40
Plant response rating, Foxtail, Giant (giant foxtail [6]; [10]): 20
Plant response rating, Foxtail, Giant (giant foxtail [6]; [11]): 10
Plant response rating (0 to 100), Johnsongrass (johnsongrass; [8]): 0
Johnsongrass plant response rating (johnsongrass; [9]): 0
Plant response rating, Johnsongrass (johnsongrass; [10]): 5
Plant response rating, Johnsongrass (johnsongrass; [11]): 5
Plant response rating (0 to 100), Chickweed (chickweed; [8]): 10
Chickweed plant response rating (chickweed; [9]): 30
Plant response rating, Chickweed (chickweed; [10]): 70
Plant response rating, Chickweed (chickweed; [11]): 35
